Columns and labels:
GR = biological target: T1, GR (Homo sapiens, UniProt P04150); test: In vitro GR luciferase reporter assay (antagonist mode); type: cell-based; settings: CHO-K1-GR-MMTV-Luc reporter cells, 10 nM dexamethasone, 18-24 hours
T1 construct: expressed in transfected cells; host or cells: CHO-K1 (Chinese hamster ovary) reporter cells carrying GR and MMTV-Luc
T1 sequence (P04150 1-777): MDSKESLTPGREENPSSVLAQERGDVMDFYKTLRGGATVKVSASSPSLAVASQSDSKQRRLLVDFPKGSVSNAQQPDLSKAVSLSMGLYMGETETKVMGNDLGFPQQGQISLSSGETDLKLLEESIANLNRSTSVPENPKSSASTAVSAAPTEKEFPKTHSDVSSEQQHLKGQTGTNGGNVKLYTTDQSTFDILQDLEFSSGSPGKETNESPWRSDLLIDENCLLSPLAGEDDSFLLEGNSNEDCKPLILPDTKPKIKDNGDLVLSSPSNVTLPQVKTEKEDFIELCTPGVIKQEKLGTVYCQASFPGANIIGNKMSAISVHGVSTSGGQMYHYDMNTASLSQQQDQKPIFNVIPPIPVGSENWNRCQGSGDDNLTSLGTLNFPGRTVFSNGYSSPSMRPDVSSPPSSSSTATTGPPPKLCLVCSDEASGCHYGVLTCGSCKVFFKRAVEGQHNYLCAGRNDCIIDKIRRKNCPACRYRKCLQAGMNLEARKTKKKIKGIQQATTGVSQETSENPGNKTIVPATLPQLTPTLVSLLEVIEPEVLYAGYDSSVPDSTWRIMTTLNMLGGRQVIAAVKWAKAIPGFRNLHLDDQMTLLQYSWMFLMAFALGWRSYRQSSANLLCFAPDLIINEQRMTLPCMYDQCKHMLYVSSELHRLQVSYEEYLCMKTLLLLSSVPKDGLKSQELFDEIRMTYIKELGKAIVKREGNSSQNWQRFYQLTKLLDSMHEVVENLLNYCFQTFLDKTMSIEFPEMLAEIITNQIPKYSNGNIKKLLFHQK
Description: Example 4: In Vitro GR Luciferase Reporter Assay
• Cell Line: CIH-K1-GR-MMTV-Luc reporter cells • Culture Media: DMEM (with phenol red) +10% FBS • Assay Media: DMEM (without phenol red) +10% CSS
Culture CHO-K1-GR-MMTV-Luc reporter cells in 15 cm plates in Culture Media at conditions less than 90% confluence.
Prepare 200× DMSO 1:5 serial dilutions of control and test compounds in 96-well non-sterile V bottom plate in DMSO, 8 serial dilutions for each compound.
Prepare 5× Assay Media diluted compound serial dilutions in 96-well non-sterile V bottom plate: Add 97.5 uL/well of Assay Media into 96-well then add 2.5 ul of 200× concentration of compounds and mix well.
Seed cells for Antagonist Assay: 1.5×10^6 CHO-K1-GR-MMTV-Luc reporter cells were seeded in a Corning 3707 flat clear bottom 384-well white TC plate in 20 ul of Assay Media containing 12.5 nM Dexamethasone (final concentration=10nM). […]
Read plates: Equilibrate appropriate amount of Promega OneGlo luciferase reagent to room temperature. Remove the plates from incubator and add 25 uL of OneGlo reagent/well by multiple channel pipette and read the plates with Tecan F500 luminometer within 3 minutes.
The ability of the compounds disclosed herein to inhibit GR activity was quantified and the respective IC50 value was determined. […]

AR = test: In vitro AR agonism assay in LNAR reporter cell line; type: cell-based; settings: for Relative Maximum Response to Mifepristone: LNAR cells (overexpressed AR, 4xARE-Luc), RPMI + 10% CSS, Mifepristone maximum response set to 1
Protocol: Example 5: In Vitro AR Agonisin Assay
The AR agonism assay was done in the LNAR reporter cell line which has overexpressed AR and 4×ARE-Luc genes. This cell line is sensitive to even minor partial AR agonism activity in hormone-deprived media (CSS). The assays were done in RPMI (without phenol red) +10% CSS using 6000 LNAR cells/well in 384-well plates and compounds were incubated with cells in […] incubator for 8-24 hrs. OneGlo reagent (25 uL/well) was added and plates were read with luminometer within 3 minutes.
To gauge the AR partial agonism activity, Mifepristone is included as a standard in the assay. AR agonism assay results are quantified by determining the ratio of the maximum response of individual compounds to the maximum response of Mifepristone (arbitrarily set to 1). Values of Table 4 are reported as Relative Maximum Response to Mifepristone. This general trend of AR agonism was shown for the class of compounds described herein.

Cc1ccc([C@H]2C[C@@]3(C)[C@@H](CC[C@@]3(O)C#CC(C)(F)F)[C@@H]3CCC4=CC(=O)CCC4=C32)cc1F
IC50 (GR): > 0.1 µM

[2H]C([2H])([2H])C#C[C@]1(O)[C@H](C)C[C@H]2[C@@H]3CCC4=CC(=O)CCC4=C3[C@@H](c3cc(F)c(C)c(F)c3)C[C@@]21C
IC50 (GR): ≤ 0.1 µM

CC(C)C#C[C@]1(O)CC[C@H]2[C@@H]3CCC4=CC(=O)CCC4=C3[C@@H](c3ccc(N(C)C)c(F)c3)C[C@@]21C
Relative Maximum Response to Mifepristone (AR): A (A: ≤0.4)

CN(C)c1ccc([C@H]2C[C@@]3(C)[C@@H](CC[C@@]3(O)C#CC(C)(C)C)[C@@H]3CCC4=CC(=O)CCC4=C32)cc1
Relative Maximum Response to Mifepristone (AR): A (A: ≤0.4)

CC#C[C@]1(O)CC[C@H]2[C@@H]3CCC4=CC(=O)CCC4=C3[C@@H](c3ccc(N(C)C)cc3)C[C@@]21C [Mifepristone, reference compound]
concentration showing strong partial AR agonism (AR; LNAR reporter cells, hormone-deprived media (CSS)): ≥ 10 nM

From patent US20210395295A1, “INHIBITORS OF GLUCOCORTICOID RECEPTOR” (ORIC Pharmaceuticals, Inc., priority 2015, published 2021)
